According to patent US10882826B2, “Quinolinone or quinazolinone comprising antibiofilm compositions, compounds and methods and uses relating thereto” (University College Cork—National University of Ireland, priority 2015, dated 2021):

Legend:
[1] = system: C. albicans strain SC5314 biofilm; assay: XTT metabolic assay of C. albicans biofilm; format: cell-based, Candida albicans; details: for XTT result, Mean (MeOH control = 1) / Absorbance at 492 nm, Mean (XTT): C. albicans biofilm; for Absorbance at 492 nm, Mean (XTT): test compound 100 μM, 24 hr, MeOH control 0.647, untreated 0.851; for effectiveness against fungal biofilms formed by Candida albicans (in words): summary statement
Method: C. albicans strain SC5314 was sub-cultured from 15% (v/v) glycerol stocks at −80° C. onto Yeast Peptone Dextrose (YPD) medium [1% (w/v) yeast extract, 2% (w/v) peptone and 2% (w/v) dextrose] and incubated at 30° C. overnight.
The test compounds in desiccated form were re-suspended in Methanol to create a 10 mM stock. […]
The ability of some of the compounds detailed in example 1 to disrupt Candida albicans was tested using Confocal Scanning Laser Microscopy and an XTT Metabolic Assay. The XTT assay is a commonly used quantitative method assessing Candida biofilm mass and growth often in response to novel drug therapies.
C. albicans biofilm formation was carried out in 96 well plates by a method of the prior art. Briefly, C. albicans was inoculated into Yeast Nitrogen Base [10% (w/v)] and glucose/maltose [10% (w/v)] and incubated overnight at 30° C. Seeding densities for all subsequent experiments (N=3) were OD600=0.05. Cells were grown in Yeast Nitrogen Base supplemented with 1 M Phosphate buffer and acetyl-D-glucosamine (YNB-NP) along with appropriate volumes of test compound to provide the desired concentration. Cells were cultured in 96 well plates for 1 hr at 37° C. to facilitate yeast attachment. After this incubation, the supernatants were aspirated, the wells washed twice with YNB-NP media, and fresh media with the same concentration of test compound added to the appropriate wells. The plate was incubated for 24 hr at 37° C. The next day, the cultures were aspirated and the wells washed once with YNB-NP media.
C. albicans biofilm quantification was carried out in 96 well plates using a semi-quantitative Tetrazolium salt, 2,3-bis-(2-methoxy-4-nitro-5-sulfophenyl)-2H tetrazolium-5-carboxanilide inner salt (XTT) reduction assay (Hawser, Tunney et al, Antimicrob Agents Chemother. 2004 May; 48(5):1879-81). XTT (0.01 g) was dissolved in sterile water (20 ml) and filter sterilized. 10 μl of Menadione dissolved in Acetone was added to the XTT solution, just before use. The XTT-Menadione Solution (100 μl) was added to each well. The plate was incubated in the dark at 37° C. for up to 2 hr to allow for colour development. The OD492 nm was recorded for each well. Experiments were repeated at least three times, with at least eight technical replicates.
Experiments were first carried out using the test compound at concentration of 100 μM.

[2] = system: IB3 lung epithelial cells; assay: LDH release cytotoxicity, IB3-1 cells; format: cell-based; details: 100 μM, 16 hr, percentage of 0.1% Triton (100% cytotoxicity), MeOH 3.844
Method: Lactate dehydrogenase (LDH) release from IB3 lung epithelial cells was assayed as a measure of cytotoxicity using an LDH colorimetric kit (Roche) according to manufacturers' instructions. Briefly, IB3-1 cells were seeded onto 96 well plates and treated with methanol (control) and test compounds (100 μM). Following 16 hr incubation at 37° C. and 5% CO2, supernatants were removed and added to catalyst reaction mixture in a fresh plate and further incubated at 37° C. and 5% CO2 for 30 mins to allow for colour development. After this period, the plate was analysed on an ELISA plate reader at OD490 nm. Cytotoxicity was expressed as a percentage of cells treated with 0.1% (v/v) Triton (100% cytotoxicity).

Pseudomonus aeruginosa = assay: Virulence of Pseudomonas aeruginosa (summary statement); format: cell-based; details: unlike HHQ and PQS
[3] = system: pqsA-lacZ promoter fusion; assay: Promoter fusion based expression analysis (pqsA-lacZ, Miller units); format: cell-based, P. aeruginosa; details: PAO1 pqsA-pqsA-lacZ strain, 100 μM, overnight; methanol control 12287
Method: P. aeruginosa strains, PAO1 and pqsA mutant, containing the chromosomally inserted pqsA-lacZ promoter fusion on plasmid pUC18-mini-Tn7, were sub-cultured from glycerol stocks onto LB agar plates, supplemented with Carbenicillin (200 μg/ml) and X-gal (40 μg/ml), and incubated at 37° C. overnight. Single colonies were inoculated into LB broth (20 ml), supplemented with Carbenicillin (200 μg/ml), and incubated at 37° C., shaking at 180 rpm overnight. For subsequent experiments, the OD600 nm was recorded and a starting OD600 nm of 0.02 was inoculated into fresh LB broth, supplemented with Carbenicillin (200 μg/ml) and incubated at 37° C., shaking at 180 rpm.
Promoter fusion analyses were performed in a 96-well format. Briefly, overnight cultures of wild-type PAO1 pqsA-lacZ (pLP0996) and mutant strain PAO1 pqsA^− pqsA-LacZ were diluted to OD600 nm=0.02 in LB. Test compounds at 100 μM final concentration were added, mixed, aliquoted into 96 well plates and incubated overnight at 37° C. with shaking. The next day, OD600 nm values were recorded in a plate reader. Aliquots of cells (0.02 ml) were permeabilised [100 mM dibasic sodium phosphate (Na2HPO4), 20 mM KCl, 2 mM MgSO4, 0.8 mg/mL CTAB (hexadecyltrimethylammonium bromide), 0.4 mg/mL sodium deoxycholate, 5.4 μL/mL beta-mercaptoethanol] and added to substrate solution [60 mM Na2HPO4, 40 mM NaH2PO4, 1 mg/mL o-nitrophenyl-β-D-Galactoside (ONPG), 2.7 μL/mL β-mercaptoethanol]. The kinetics of colour development was monitored and the reactions were stopped using 1M NaCO3. OD420 nm were recorded as above. Miller units were calculated using the following equation; 1000×[OD420 nm/(OD600 nm)×0.02 ml×reaction time (mins)].
The phenazine production levels and Miller units in the PAO1 pqsA-pqsA-lacZ strain are detailed in table 5.
The virulence of compounds B2, C13 and C15 towards P. aeruginosa was assessed using an analogous method.

Structure (SMILES): CCCCCCCc1nc2ccccc2c(=O)n1N [Compound C2]
- XTT result, Mean (MeOH control = 1) ([1]; 10 μM): 0.68
- XTT result, Mean (MeOH control = 1) ([1]; 50 μM): 0.38
- XTT result, Mean (MeOH control = 1) ([1]; 100 μM): 0.25
- Absorbance at 492 nm, Mean (XTT) [1]: 0.178
- effectiveness against fungal biofilms formed by Candida albicans (in words) [1]: effective
- % Cytotoxicity, Mean (LDH release) [2]: 28.94%
- effect on virulence of Pseudomonus aeruginosa (in words) (Pseudomonus aeruginosa): do not increase the virulence
- Miller Units, Mean [3]: 16027 Miller Units

Structure (SMILES): CCCCCCCc1cc(=O)c2cc(Cl)ccc2[nH]1 [Compound C4]
- XTT result, Mean (MeOH control = 1) ([1]; 10 μM): 0.86
- XTT result, Mean (MeOH control = 1) ([1]; 50 μM): 0.67
- XTT result, Mean (MeOH control = 1) ([1]; 100 μM): 0.58
- Absorbance at 492 nm, Mean (XTT) [1]: 0.302
- effectiveness against fungal biofilms formed by Candida albicans (in words) [1]: effective
- % Cytotoxicity, Mean (LDH release) [2]: 15.46%
- effect on virulence of Pseudomonus aeruginosa (in words) (Pseudomonus aeruginosa): do not increase the virulence
- Miller Units, Mean [3]: 35489 Miller Units

Structure (SMILES): CCCCCCCc1cc(=O)c2cccc(Cl)c2[nH]1 [Compound C5]
- Absorbance at 492 nm, Mean (XTT) [1]: 0.242
- effectiveness against fungal biofilms formed by Candida albicans (in words) [1]: effective
- % Cytotoxicity, Mean (LDH release) [2]: 31.04%
- effect on virulence of Pseudomonus aeruginosa (in words) (Pseudomonus aeruginosa): do not increase the virulence
- Miller Units, Mean [3]: 11940 Miller Units
